≈ marks a conversion by molar mass, not a printed value.

This assay relates to Mycobacterium tuberculosis H37Rv (ATCC #27294). In words: Minimum Inhibitory Concentration (MIC50) determination. In kind it is cell-based. As to conditions: 120 h. As for the experimental part:
Mycobacterium tuberculosis H37Rv (ATCC #27294) (Mtb) strain was maintained in Middlebrook 7H9 broth medium supplemented with 0.05% Tween 80 and 10% ADS supplement. ADS supplement contains 5% bovine serum albumin fraction V. 2% D-dextrose and 0.8% of sodium chloride. Middlebrook 7H11 agar medium supplemented with 10% OADC (oleic acid, albumin, dextrose and catalase) was used as solid media for growing Mtb. Stock solutions of the compounds were prepared using 90% DMSO.
Minimum Inhibitory Concentration (MIC50) Determination
In Table 5 below, MIC50 is defined as the lowest concentration of the compound that inhibited 50% growth of the wild type strain compared to untreated controls. Test compounds were two or three fold serially diluted in duplicates and spotted by mosquito HTS to 384-well clear plates, resulting in 10 dilutions of each compound. A volume of 50 μl of Mtb culture (final OD600 of 0.02) was added to each well, and the assay plates were incubated at 37° C. for 5 days. Growth of bacteria was measured by reading absorbance at 600 nm using a Spectramax M2 spectrophotometer. MIC50 values were determined by using Activity Base software.
As usually defined, the MIC50 is the lowest concentration that inhibits either 50% of growth or 50% of the strains tested, depending on the study. A lower MIC50 goes with higher susceptibility. For the compound `CCC(C)CNC(=O)c1cc2c(C)cc(C)cc2[nH]1` (stereo not drawn) [Example 3I, 4,6-Dimethyl-N-(2-methylbutyl)-1H-indole-2-carboxamide], the MIC50 is 2.48 µM (≈ 0.641 µg/mL).
As for `CC1CCC(NC(=O)c2cc3c(Cl)cccc3[nH]2)CC1` (stereo not drawn) [Example 4Y, 4-Chloro-N-(4-methylcyclohexyl)-1H-indole-2-carboxamide], the figure is 0.22 µM (≈ 0.064 µg/mL).
As for `CC1CCC(NC(=O)c2cc3cccc(Cl)c3[nH]2)CC1` (stereo not drawn) [Example 4X, 7-Chloro-N-(4-methylcyclohexyl)-1H-indole-2-carboxamide], the MIC50 stood at 0.9 µM (≈ 0.262 µg/mL).
In turn, `CC1CCC(NC(=O)c2cc3c(F)cccc3[nH]2)CC1` (stereo not drawn) [Example 4BG, 4-Fluoro-N-(4-methylcyclohexyl)-1H-indole-2-carboxamide] showed an MIC50 of 2.13 µM (≈ 0.584 µg/mL).
In turn, `Cc1cc(C)c2cc(C(=O)N[C@@H]3CCC[C@H](C)[C@@H]3C)[nH]c2c1` [Example 4B, N-((1R,2S,3S)-2,3-Dimethylcyclohexyl)-4,6-dimethyl-1H-indole-2-carboxamide] displayed an MIC50 of 0.01 µM (≈ 0.00298 µg/mL).
`Cc1cc(Br)cc2[nH]c(C(=O)N[C@@H]3CCCC[C@@H]3C)cc12` [Example 4AH, 6-Bromo-4-methyl-N-((1R,2S)-2-methylcyclohexyl)-1H-indole-2-carboxamide] returned an MIC50 of 0.01 µM (≈ 0.00349 µg/mL).
The compound `CC1CCC(NC(=O)c2cc3ccc(Cl)cc3[nH]2)CC1` (stereo not drawn) [Example 4V, 6-Chloro-N-(4-methylcyclohexyl)-1H-indole-2-carboxamide] had an MIC50 of 0.2 µM (≈ 0.0582 µg/mL).
On to `C[C@H]1CC[C@@H](NC(=O)c2cc3c(Cl)cc(Cl)cc3[nH]2)CC1` [Example 4R, 4,6-Dichloro-N-(cis-4-methylcyclohexyl)-1H-indole-2-carboxamide], for which the MIC50 stood at 0.14 µM (≈ 0.0455 µg/mL).
With `Cc1cc(C)c2cc(C(=O)NC3CCCCC3C(C)C)[nH]c2c1` (stereo not drawn) [Example 4O, N-(2-Isopropylcyclohexyl)-4,6-dimethyl-1H-indole-2-carboxamide] the figure was 0.765 µM (≈ 0.239 µg/mL).
With `C[C@H]1CCCC[C@H]1NC(=O)c1cc2ccc(F)cc2[nH]1` [Example 4AZ, 6-Fluoro-N-((1R,2S)-2-methylcyclohexyl)-1H-indole-2-carboxamide] the figure was 1.35 µM (≈ 0.37 µg/mL); with `CC1CCC(NC(=O)c2cc3c(Cl)ccc(Cl)c3[nH]2)CC1` (stereo not drawn) [Example 4U, 4,7-Dichloro-N-(4-methylcyclohexyl)-1H-indole-2-carboxamide], 8.42 µM (≈ 2.74 µg/mL).
For `COc1cc(OC)c2cc(C(=O)N[C@@H]3CCCC[C@@H]3C)[nH]c2c1` [Example 4AO, 4,6-Dimethoxy-N-((1R,2S)-2-methylcyclohexyl)-1H-indole-2-carboxamide], the MIC50 was 1.46 µM (≈ 0.462 µg/mL).
Compound `CCNc1cc(C)c2cc(C(=O)N[C@@H]3CCCC[C@@H]3C)[nH]c2c1` [Example 6D, 6-(Ethylamino)-4-methyl-N-((1R,2S)-2-methylcyclohexyl)-1H-indole-2-carboxamide] registered an MIC50 of 4.86 µM (≈ 1.52 µg/mL).
As for `O=C(NC1CCC(C(F)(F)F)CC1)c1cc2c(Cl)cc(Cl)cc2[nH]1` (stereo not drawn) [Example 5A, 4,6-Dichloro-N-(4-(trifluoromethyl)-cyclohexyl)-1H-indole-2-carboxamide], the figure is 0.305 µM (≈ 0.116 µg/mL); as for `Cc1cc(C)c2cc(C(=O)Nc3ccc(C(C)C)cc3)[nH]c2c1` [Example 3A, N-(4-Isopropylphenyl)-4,6-dimethyl-1H-indole-2-carboxamide], 8.67 µM (≈ 2.66 µg/mL); as for `Cc1cc(OCCN2CCOCC2)cc2[nH]c(C(=O)NC3CCCCC3)cc12` [Example 9A, N-Cyclohexyl-4-methyl-6-(2-morpholinoethoxy)-1H-indole-2-carboxamide], 4.94 µM (≈ 1.9 µg/mL).
With `Cc1cc(N2CCOCC2)cc2[nH]c(C(=O)N[C@@H]3CCCC[C@@H]3C)cc12` [Example 6B, 4-Methyl-N-((1R,2S)-2-methylcyclohexyl)-6-morpholino-1H-indole-2-carboxamide] the figure was 14.2 µM (≈ 5.07 µg/mL); with `C[C@H]1CCCC[C@H]1NC(=O)c1cc2c(C(F)(F)F)cc(C(F)(F)F)cc2[nH]1` [Example 4BC, N-((1R,2S)-2-Methylcyclohexyl)-4,6-bis(trifluoromethyl)-1H-indole-2-carboxamide], 1.6 µM (≈ 0.628 µg/mL); with `Cc1ccc2cc(C(=O)N[C@@H]3CCCC[C@@H]3C)[nH]c2c1` [Example 4Z, 6-Methyl-N-((1R,2S)-2-methylcyclohexyl)-1H-indole-2-carboxamide], 0.36 µM (≈ 0.0973 µg/mL).
As for `CC1(C)CCC(NC(=O)c2cc3c(Cl)cc(Cl)cc3[nH]2)CC1` [Example 1A, 4,6-dichloro-N-(4,4-dimethylcyclohexyl)-1H-indole-2-carboxamide], the figure is 0.015 µM (≈ 0.00509 µg/mL); as for `Cc1ccc2[nH]c(C(=O)NC3CCCCC3)c(C)c2c1` [Example 4BD, N-cyclohexyl-3,5-dimethyl-1H-indole-2-carboxamide], 3.51 µM (≈ 0.949 µg/mL); as for `Cc1cc(C)c2cc(C(=O)NC(C)CCc3ccccc3)[nH]c2c1` (stereo not drawn) [Example 3E, 4,6-Dimethyl-N-(4-phenylbutan-2-yl)-1H-indole-2-carboxamide], 5.74 µM (≈ 1.84 µg/mL).
`CC1CCC(NC(=O)c2cc3c(Cl)cc(Cl)cc3[nH]2)CC1` (stereo not drawn) [Example 4G, 4,6-Dichloro-N-(4-methylcyclohexyl)-1H-indole-2-carboxamide] displayed an MIC50 of 0.057 µM (≈ 0.0185 µg/mL).
The compound `N#Cc1ccc2cc(C(=O)NC3CCCCC3)[nH]c2c1` [Example 4AF, 6-Cyano-N-cyclohexyl-1H-indole-2-carboxamide] gave an MIC50 of 2.27 µM (≈ 0.608 µg/mL).
On to `O=C(NC1CCC(CO)CC1)c1cc2c(Cl)cc(Cl)cc2[nH]1` (stereo not drawn) [Example 4AX, 4,6-Dichloro-N-(4-(hydroxymethyl)-cyclohexyl)-1H-indole-2-carboxamide], for which the MIC50 worked out at 13.5 µM (≈ 4.6 µg/mL).
`C[C@H]1CCCC[C@H]1NC(=O)c1cc2ccc(Br)cc2[nH]1` [Example 4AC, 6-Bromo-N-((1R,2S)-2-methylcyclohexyl)-1H-indole-2-carboxamide] came in with an MIC50 of 0.5 µM (≈ 0.168 µg/mL).
As for `C[C@H]1CCCC[C@H]1NC(=O)c1cc2c(C#N)cccc2[nH]1` [Example 4AD, 4-Cyano-N-((1R,2S)-2-methylcyclohexyl)-1H-indole-2-carboxamide], the figure is 0.76 µM (≈ 0.214 µg/mL); as for `Cc1cc(C)c2cc(C(=O)NC3CCCCC3O)[nH]c2c1` (stereo not drawn) [Example 4L, N-(2-Hydroxycyclohexyl)-4,6-dimethyl-1H-indole-2-carboxamide], 2.92 µM (≈ 0.837 µg/mL).
As for `C[C@H]1CCCC[C@H]1NC(=O)c1cc2cc3c(cc2[nH]1)OCO3` [Example 4AP, N-((1R,2S)-2-Methylcyclohexyl)-5H-[1,3]dioxolo[4,5-f]indole-6-carboxamide], the figure is 2.13 µM (≈ 0.64 µg/mL).
With `C[C@H]1CC[C@H](NC(=O)c2cc3c(C#N)cc(C#N)cc3[nH]2)CC1` [Example 4AV, 4,6-Dicyano-N-(trans-4-methylcyclohexyl)-1H-indole-2-carboxamide] the figure was 0.225 µM (≈ 0.0689 µg/mL); with `O=C(NC1CCC(CF)CC1)c1cc2c(Cl)cc(Cl)cc2[nH]1` (stereo not drawn) [Example 7A, 4,6-Dichloro-N-(4-(fluoromethyl)cyclohexyl)-1H-indole-2-carboxamide], 0.14 µM (≈ 0.0481 µg/mL).
For `CC1CCC(NC(=O)c2cc3ccc(F)cc3[nH]2)CC1` (stereo not drawn) [Example 4BF, 6-Fluoro-N-(4-methylcyclohexyl)-1H-indole-2-carboxamide], the MIC50 was determined as 1.62 µM (≈ 0.444 µg/mL).
As for `Cc1cc(Br)c2cc(C(=O)N[C@@H]3CCCC[C@@H]3C)[nH]c2c1` [Example 4AI, 4-Bromo-6-methyl-N-((1R,2S)-2-methylcyclohexyl)-1H-indole-2-carboxamide], the figure is 0.06 µM (≈ 0.021 µg/mL); as for `C[C@H]1CCCC[C@H]1NC(=O)c1cc2c(F)cccc2[nH]1` [Example 4AY, 4-Fluoro-N-((1R,2S)-2-methylcyclohexyl)-1H-indole-2-carboxamide], 1.83 µM (≈ 0.502 µg/mL).
With `Cc1cc(NC(C)C)cc2[nH]c(C(=O)N[C@@H]3CCCC[C@@H]3C)cc12` [Example 6E, 6-(Isopropylamino)-4-methyl-N-((1R,2S)-2-methylcyclohexyl)-1H-indole-2-carboxamide] the figure was 2.92 µM (≈ 0.958 µg/mL).
As for `COc1cc2cc(C(=O)N[C@@H]3CCCC[C@@H]3C)[nH]c2cc1OC` [Example 4AQ, 5,6-Dimethoxy-N-((1R,2S)-2-methylcyclohexyl)-1H-indole-2-carboxamide], the figure is 19.5 µM (≈ 6.17 µg/mL); as for `Cc1cc(C)c2cc(C(=O)NCCC(C)C)[nH]c2c1` [Example 3D, N-Isopentyl-4,6-dimethyl-1H-indole-2-carboxamide], 3.26 µM (≈ 0.842 µg/mL).
`C[C@H]1CCCC[C@H]1NC(=O)c1cc2c(Br)cccc2[nH]1` [Example 4AB, 4-Bromo-N-((1R,2S)-2-methylcyclohexyl)-1H-indole-2-carboxamide] returned an MIC50 of 0.29 µM (≈ 0.0972 µg/mL).
As for `Cc1cc(C)c2cc(C(=O)NC3CCCCC3C(F)(F)F)[nH]c2c1` (stereo not drawn) [Example 4M, 4,6-Dimethyl-N-(2-(trifluoromethyl)cyclohexyl)-1H-indole-2-carboxamide], the figure is 0.585 µM (≈ 0.198 µg/mL); as for `Cc1cc(C)c2cc(C(=O)N[C@@H]3CCC[C@@H](C)[C@@H]3C)[nH]c2c1` [Example 4C, N-((1R,2S,3R)-2,3-Dimethylcyclohexyl)-4,6-dimethyl-1H-indole-2-carboxamide], 0.03 µM (≈ 0.00895 µg/mL); as for `COc1cccc2[nH]c(C(=O)N[C@@H]3CCCC[C@@H]3C)cc12` [Example 4AL, 4-Methoxy-N-((1R,2S)-2-methylcyclohexyl)-1H-indole-2-carboxamide], 1.59 µM (≈ 0.455 µg/mL).
As to `Cc1cc(C#N)c2cc(C(=O)N[C@@H]3CCCC[C@@H]3C)[nH]c2c1` [Example 4AK, 4-Cyano-6-methyl-N-((1R,2S)-2-methylcyclohexyl)-1H-indole-2-carboxamide], the MIC50 worked out at 0.02 µM (≈ 0.00591 µg/mL).
